Reference: the OPERA property sets (Mansouri et al. 2018)

| Structure (SMILES) | logP |
| --- | --- |
| O=C(O)CCSc1c[nH]c2ccccc12 | 2.15 |
| OCCCCCn1nnc2ccccc21 | 1.51 |
| Brc1n[nH]c(Br)n1 | 2.24 |
| COn1c(=O)[nH]c(C)c(Br)c1=O | -0.3 |
| CCNP(=O)(OC)SC (stereo unspecified) | 0.07 |
| N#CCN(CC#N)N=O | 0.04 |
| CCOC(=O)CCCCn1nnc2ccccc21 | 2.2 |
| CCCNC(=NC#N)NC | 0.42 |
| CSC(C)=NOC(=O)N(C)SN(C)C(=O)c1ccc(Cl)cc1 | 2.6 |
| COc1ccccc1C1=NCC(=O)Nc2ccc(Cl)cc21 | 2.63 |
| N=C(N)NC(=O)Nc1ccc(Cl)c(Cl)c1 | 2.39 |
| COc1cc(Cc2cnc(N)nc2N)cc(OCc2ccccc2)c1OC | 2.37 |
| COc1nnc(C(C)C)c(=O)n1N | -0.06 |
| CON(C)C(=O)Nc1cccc(C(C)(C)C)c1 | 3.21 |
| CCOC(=O)C(C#N)=NNc1cc(Cl)c(Cl)cc1Cl | 5.21 |
| CC1(C)CCCC(C)(C)N1N=O | 2.49 |
| O=S(=O)(Nc1cccc(F)c1)C(F)(F)F | 3.42 |
| CCOP(=S)(OCC)SCS(=O)(=O)C(C)(C)C | 2.48 |
| Cc1ccc(OC2OC(CO)C(O)C(O)C2O)cc1 (stereo unspecified) | -0.16 |
| O=NN1CCC(c2ccccc2)CC1 | 2.59 |
| COc1ccccc1C(=O)NN | 0.25 |

| Structure (SMILES) | logP |
| --- | --- |
| CC1C(C)N(N=O)C(C)C(C)N1N=O (stereo unspecified) | 0.91 |
| CCCC1=Nc2cc(Cl)ccc2S(=O)(=O)N1 | 2.04 |
| COc1cc(C)n(-c2ccncn2)n1 | 2.21 |
| Cc1cc(C)cc(O[Si]23OCCN(CCO2)CCO3)c1 | 0.46 |
| COc1cc(Cc2cnc(N)nc2N)cc(OC)c1C#N | 1.39 |
| COc1ccccc1C(=O)N1CCN(C)CC1 | 0.29 |
| CN(SN(C)C(=O)OC(C)(C)C)C(=O)Oc1cccc2c1OC(C)(C)C2 | 4.3 |
| OC1C(Cl)C(Cl)C(Cl)C(Cl)C1Cl (stereo unspecified) | 2.54 |
| COCC1=Nc2cc(Cl)ccc2S(=O)(=O)N1 | 1.12 |
| N#Cc1ccc(NS(=O)(=O)c2ccc(N)cc2)cc1 | 1.83 |
| COc1ccc(Cc2cnc(N)nc2N)c(OC)n1 | 2.01 |
| COc1ccnc(-n2nc(C)cc2OC)n1 | 1.01 |
| CN(C)C(=O)Cc1ccco1 | 0.01 |
| Cc1noc(-c2ccccn2)n1 | 0.89 |
| CC(C)CNCC(=O)NC(=O)C=[N+]=[N-] | 0.37 |
| Nc1nc(N)nc(-c2cc(F)ccc2Cl)n1 | 1.38 |
| CCCNC1CC2CC1c1ccccc12 (stereo unspecified) | 3.3 |
| O=C(O)COc1ccccc1-c1ccccc1 | 2.83 |
| CCOC(=O)CN(C(=O)CCl)c1ccccc1Cl | 2.3 |
| CC(=O)Nc1cccc(N=NN(C)C)c1 | 1.61 |
| O=S1(=O)N=C(Cc2ccccc2)Nc2ccccc21 | 1.89 |

| Structure (SMILES) | logP |
| --- | --- |
| O=C1CN=C(c2ccc(Br)cc2)c2cc(Br)ccc2N1 | 4.04 |
| O=S(=O)(Nc1ccc(F)cc1F)C(F)(F)F | 3.06 |
| CCCNc1c([N+](=O)[O-])cc(C(F)(F)F)cc1[N+](=O)[O-] | 3.65 |
| CCCC(=O)NC(=O)C1CCC1 | 0.41 |
| O=[N+]([O-])c1cnc(N=C2SCCN2CCO)s1 | 1.28 |
| Cn1c(=O)c(=O)n(C)c2ccccc21 | 0.08 |
| CC1=Nc2cc(Br)ccc2S(=O)(=O)N1 | 1.37 |
| COc1ccccc1OC1OC(CO)C(O)C(O)C1O (stereo unspecified) | -1.04 |
| O=S1(=O)NC(C2CC3C=CC2C3)=Nc2ccccc21 (stereo unspecified) | 2.06 |
| CCN(CC)C(=O)NN | -0.62 |
| CC12CCC(=O)C=C1CCC1C3CCC4(CCC(=O)O4)C3(C)CC3OC312 (stereo unspecified) | 1.89 |
| C[N+](C)(C)Cc1cccc(O)c1.[Br-] | -2.4 |
| COc1cc(Cc2cnc(N)nc2N)cc(OC)c1OCC#N | 0.72 |
| COC12C(COC(N)=O)C3=C(C(=O)C(C)=C(Nc4nccs4)C3=O)N1CC1NC12 (stereo unspecified) | 0.62 |
| CCCS(=O)(=O)c1cc(OC)c(OC)c(OC)c1 | 1.56 |
| Nc1ccc(Cc2cnc(N)nc2N)cc1 | 0.22 |
| CC1(C)N=C(N)N=C(N)N1c1ccc(C(F)(F)F)cc1 | 1.22 |
| CN(C)c1nc2ccccc2o1 | 2.1 |
| O=C1CCC(=O)N1c1ccc(F)cc1 | 0.29 |
